Data on seven cell lines can be found in the supplement of paper PMC10307832.

What all share (assay): relative viability (nuclei count vs DMSO), 5 days (fraction); higher = more cells survive
Compound in assay [1]: C1=CC=C(C(=C1)C2=CC=C(C=C2)C3=CSC4=C3C(=C(C(=O)N4)C#N)O)O + CS(=O)(=O)CCNCc1ccc(-c2ccc3ncnc(Nc4ccc(OCc5cccc(F)c5)c(Cl)c4)c3c2)o1 [Lapatinib] (partner 2 µM)
In short, it runs like this:
(§1)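 Medians of duplicate plates are given as relative viability. That measure is the nuclei count in treated wells divided by the count in vehicle wells. Counts were taken on 4× images of lung cancer cell lines in 1536-well plates, 5 days after pin-tool dosing the day after seeding with one drug alone or a fixed anchor-drug dose plus five library-drug doses (not always all listed) in √10 steps.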

Compound in the assay “TGX 221 + Vorinostat”: CC1=CN2C(=O)C=C(N=C2C(=C1)C(C)NC3=CC=CC=C3)N4CCOCC4 [TGX 221] + O=C(CCCCCCC(=O)Nc1ccccc1)NO [Vorinostat] (partner 1 µM)
A digest of the protocol: as §1

Compound in assay [2]: C1=CC=C(C(=C1)C2=CC=C(C=C2)C3=CSC4=C3C(=C(C(=O)N4)C#N)O)O + CC1(C)CCC(c2ccc(Cl)cc2)=C(CN2CCN(c3ccc(C(=O)NS(=O)(=O)c4ccc(N[C@H](CCN5CCOCC5)CSc5ccccc5)c(S(=O)(=O)C(F)(F)F)c4)cc3)CC2)C1 [Navitoclax] (partner 0.5 µM)
In short, it runs like this: as §1

Compound in the assay “Ricolinostat + Dasatinib”: O=C(CCCCCCNC(=O)c1cnc(N(c2ccccc2)c2ccccc2)nc1)NO [Ricolinostat] + Cc1nc(Nc2ncc(C(=O)Nc3c(C)cccc3Cl)s2)cc(N2CCN(CCO)CC2)n1 [Dasatinib] (partner 0.075 µM)
A digest of the protocol: as §1

For the cell line LCLC-97TM1, the relative viability in assay [1] (first compound 0.08 µM) is 1.01; in assay [1] (first compound 0.253 µM), 1.6; in assay [1] (first compound 0.8 µM), 1.05; in assay [1] (first compound 2.53 µM), 0.68; in assay [1] (first compound 8 µM), 0.92; with TGX 221 + Vorinostat (first compound 0.08 µM), 0.819. Besides, the relative viability with TGX 221 + Vorinostat (first compound 0.253 µM) worked out at 0.459; in the assay with TGX 221 + Vorinostat (first compound 0.8 µM), 0.856; with TGX 221 + Vorinostat (first compound 2.53 µM), 0.615; with TGX 221 + Vorinostat (first compound 8 µM), 0.847; in assay [2] (first compound 0.08 µM), 0.379; in assay [2] (first compound 0.253 µM), 0.719. Further, the relative viability turned out to be 0.514 in assay [2] (first compound 0.8 µM); 0.393 in assay [2] (first compound 2.53 µM); 0.453 in assay [2] (first compound 8 µM); 0.727 with Ricolinostat + Dasatinib (first compound 0.08 µM); 0.853 with Ricolinostat + Dasatinib (first compound 0.253 µM); 0.878 in the assay with Ricolinostat + Dasatinib (first compound 0.8 µM). Besides, in the assay with Ricolinostat + Dasatinib (first compound 2.53 µM), the relative viability worked out at 0.34.
For the cell line HCC-15, the relative viability in assay [1] (first compound 0.08 µM) was 0.702; in assay [1] (first compound 0.253 µM), 0.918; in assay [1] (first compound 0.8 µM) it was 0.897; in assay [1] (first compound 2.53 µM), 0.962; in assay [1] (first compound 8 µM) it was 0.783; with TGX 221 + Vorinostat (first compound 0.08 µM), 0.753. The relative viability is 0.787 with TGX 221 + Vorinostat (first compound 0.253 µM); 0.977 in the assay with TGX 221 + Vorinostat (first compound 0.8 µM); 0.839 in the assay with TGX 221 + Vorinostat (first compound 2.53 µM); 0.787 with TGX 221 + Vorinostat (first compound 8 µM); 0.663 in assay [2] (first compound 0.08 µM); 0.809 in assay [2] (first compound 0.253 µM). For the same cell line, the relative viability in assay [2] (first compound 0.8 µM) stood at 0.763; in assay [2] (first compound 2.53 µM) it was 0.858; in assay [2] (first compound 8 µM), 0.644; with Ricolinostat + Dasatinib (first compound 0.08 µM), 0.537; with Ricolinostat + Dasatinib (first compound 0.253 µM), 0.665; in the assay with Ricolinostat + Dasatinib (first compound 0.8 µM), 0.642. Besides, the relative viability in the assay with Ricolinostat + Dasatinib (first compound 2.53 µM) was 0.653.
As for NCI-H727, the relative viability in assay [1] (first compound 0.08 µM) turned out to be 0.834; in assay [1] (first compound 0.253 µM) it was 0.844; in assay [1] (first compound 0.8 µM) it was 0.927; in assay [1] (first compound 2.53 µM), 0.589; in assay [1] (first compound 8 µM), 0.757; in the assay with TGX 221 + Vorinostat (first compound 0.08 µM), 1.09. Also, the relative viability with TGX 221 + Vorinostat (first compound 0.253 µM) was found to be 1.06; with TGX 221 + Vorinostat (first compound 0.8 µM), 1.14; in the assay with TGX 221 + Vorinostat (first compound 2.53 µM), 1.09; in the assay with TGX 221 + Vorinostat (first compound 8 µM), 1.19; in assay [2] (first compound 0.08 µM), 0.426; in assay [2] (first compound 0.253 µM), 0.478. For the same cell line, the relative viability in assay [2] (first compound 0.8 µM) came to 0.48; in assay [2] (first compound 2.53 µM), 0.409; in assay [2] (first compound 8 µM), 0.479; with Ricolinostat + Dasatinib (first compound 0.08 µM), 0.352; with Ricolinostat + Dasatinib (first compound 0.253 µM), 0.479; with Ricolinostat + Dasatinib (first compound 0.8 µM), 0.47. The relative viability with Ricolinostat + Dasatinib (first compound 2.53 µM) was 0.452.
On to NCI-H2170, for which the relative viability in assay [1] (first compound 0.08 µM) was determined as 0.267; in assay [1] (first compound 0.253 µM) it was 0.276; in assay [1] (first compound 0.8 µM), 0.278; in assay [1] (first compound 2.53 µM), 0.279; in assay [1] (first compound 8 µM) it was 0.286; with TGX 221 + Vorinostat (first compound 0.08 µM) it was 0.754. For the same cell line, the relative viability in the assay with TGX 221 + Vorinostat (first compound 0.253 µM) turned out to be 0.758; with TGX 221 + Vorinostat (first compound 0.8 µM), 0.767; in the assay with TGX 221 + Vorinostat (first compound 2.53 µM), 0.759; with TGX 221 + Vorinostat (first compound 8 µM) it was 0.831; in assay [2] (first compound 0.08 µM), 0.616; in assay [2] (first compound 0.253 µM) it was 0.683. The relative viability in assay [2] (first compound 0.8 µM) stood at 0.601; in assay [2] (first compound 2.53 µM) it was 0.561; in assay [2] (first compound 8 µM), 0.465; with Ricolinostat + Dasatinib (first compound 0.08 µM), 0.537; in the assay with Ricolinostat + Dasatinib (first compound 0.253 µM), 0.733; in the assay with Ricolinostat + Dasatinib (first compound 0.8 µM) it was 0.626. Besides, in the assay with Ricolinostat + Dasatinib (first compound 2.53 µM), the relative viability came to 0.666.
As for 201T, the relative viability in assay [1] (first compound 0.08 µM) is 0.979; in assay [1] (first compound 0.253 µM), 1.03; in assay [1] (first compound 0.8 µM) it was 1.01; in assay [1] (first compound 2.53 µM) it was 0.849; in assay [1] (first compound 8 µM), 1.12; in the assay with TGX 221 + Vorinostat (first compound 0.08 µM), 1. The relative viability with TGX 221 + Vorinostat (first compound 0.253 µM) is 0.956; with TGX 221 + Vorinostat (first compound 0.8 µM), 0.902; in the assay with TGX 221 + Vorinostat (first compound 2.53 µM) it was 0.927; in the assay with TGX 221 + Vorinostat (first compound 8 µM), 0.879; in assay [2] (first compound 0.08 µM), 1.25; in assay [2] (first compound 0.253 µM), 1.18. Also, the relative viability in assay [2] (first compound 0.8 µM) stood at 1.19; in assay [2] (first compound 2.53 µM), 1.18; in assay [2] (first compound 8 µM) it was 1.26; with Ricolinostat + Dasatinib (first compound 0.08 µM) it was 0.471; with Ricolinostat + Dasatinib (first compound 0.253 µM) it was 0.571; with Ricolinostat + Dasatinib (first compound 0.8 µM), 0.603. Further, the relative viability in the assay with Ricolinostat + Dasatinib (first compound 2.53 µM) was determined as 0.498.
On to NCI-H838, for which the relative viability turned out to be 0.659 in assay [1] (first compound 0.08 µM); 1.11 in assay [1] (first compound 0.253 µM); 0.973 in assay [1] (first compound 0.8 µM); 0.887 in assay [1] (first compound 2.53 µM); 0.872 in assay [1] (first compound 8 µM); 0.7 with TGX 221 + Vorinostat (first compound 0.08 µM). The relative viability with TGX 221 + Vorinostat (first compound 0.253 µM) was 0.67; with TGX 221 + Vorinostat (first compound 0.8 µM), 0.635; with TGX 221 + Vorinostat (first compound 2.53 µM) it was 0.668; with TGX 221 + Vorinostat (first compound 8 µM), 0.589; in assay [2] (first compound 0.08 µM), 1.16; in assay [2] (first compound 0.253 µM), 1.07. In addition, the relative viability in assay [2] (first compound 0.8 µM) was determined as 1.22; in assay [2] (first compound 2.53 µM), 1.12; in assay [2] (first compound 8 µM), 0.979; with Ricolinostat + Dasatinib (first compound 0.253 µM), 0.318; in the assay with Ricolinostat + Dasatinib (first compound 0.8 µM), 0.287; in the assay with Ricolinostat + Dasatinib (first compound 2.53 µM) it was 0.452.
Take NCI-H1915: the relative viability in assay [1] (first compound 0.08 µM) was determined as 0.835; in assay [1] (first compound 0.253 µM), 1.04; in assay [1] (first compound 0.8 µM), 0.924; in assay [1] (first compound 2.53 µM), 1.15; in assay [1] (first compound 8 µM) it was 0.882; with TGX 221 + Vorinostat (first compound 0.08 µM), 0.436. In addition, the relative viability in the assay with TGX 221 + Vorinostat (first compound 0.253 µM) turned out to be 0.486; with TGX 221 + Vorinostat (first compound 0.8 µM), 0.489; in the assay with TGX 221 + Vorinostat (first compound 2.53 µM), 0.437; with TGX 221 + Vorinostat (first compound 8 µM) it was 0.554; in assay [2] (first compound 0.08 µM) it was 0.811; in assay [2] (first compound 0.253 µM), 0.769. In addition, the relative viability was found to be 0.83 in assay [2] (first compound 0.8 µM); 0.826 in assay [2] (first compound 2.53 µM); 0.771 in assay [2] (first compound 8 µM); 0.277 in the assay with Ricolinostat + Dasatinib (first compound 0.08 µM); 0.29 with Ricolinostat + Dasatinib (first compound 0.253 µM); 0.275 in the assay with Ricolinostat + Dasatinib (first compound 0.8 µM). In addition, the relative viability with Ricolinostat + Dasatinib (first compound 2.53 µM) was determined as 0.231.
